Test results: patent publication US20230248766A1, “METHODS OF TREATING OXIDATIVE STRESS TO MODULATE REDOX BALANCE, PREVENTING OXIDATIVE STRESS INDUCED CELL DAMAGE AND DEATH” (Redox Balance, LLC, priority 2019, published 2023)

Tests used:
tomato plants = test: Plant growth enhancement by treatment with water-soluble C60; assay type: in vivo
Excerpt: Treated plants weighed 2X untreated plants. […] Example 7. […] Treated plants weighed 2× untreated plants.

seeds = test: Seed pre-treatment to enhance germination; assay type: in vivo; conditions: soaking seeds for 1 hour prior to placing in growing medium

In the case of polyhydroxy-C60, the “weight of treated plants relative to untreated plants” value (tomato plants; tomato plants after two weeks) is reported as 2 X, the “increases in growth rate” value (tomato plants; treatment of clones before initial planting) is reported as “up to two times” and the germination (seeds) is reported as “significant enhancement of germination”.
